In US20260242478A1, “ANTIBODIES FOR TARGETING PSMA AND CD28 AND USES THEREOF” (Janux Therapeutics, Inc., priority 2023, published 2026):
Where no end group is shown, it is not given here.

Each substance was assayed on anti-CD28 scFv (assay: Panning ELISA of clonal phage, anti-CD28 scFv, with or without CD28 soluble protein (Peptide-9 library)). Details: Peptide-9 library, background (no anti-CD28 scFv).
Format: binding
Description: Clonal phage were harvested as crude supernatants and screened via standard enzyme linked immunosorbent assays (ELISAs). […] Prior to the addition of clonal phage, wells were incubated with blocking buffer and CD28 soluble protein or blocking buffer alone. Without washing or aspirating, clonal phage supernatants were then added to the wells and incubated for a short time. Wells were then washed followed by detection of bound phage using a horse radish peroxidase conjugated anti-M13 antibody. Clonal phage of interest were then sent for sequence analysis.

Chain of anti-CD28 scFv (as listed by the source): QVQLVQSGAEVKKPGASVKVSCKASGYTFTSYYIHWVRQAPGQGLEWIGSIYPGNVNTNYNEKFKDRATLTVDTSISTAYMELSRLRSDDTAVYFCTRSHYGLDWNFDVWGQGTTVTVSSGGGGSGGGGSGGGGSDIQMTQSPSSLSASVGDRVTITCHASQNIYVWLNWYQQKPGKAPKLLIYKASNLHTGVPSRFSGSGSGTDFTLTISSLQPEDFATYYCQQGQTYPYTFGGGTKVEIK

Row | Substance | Background signal
1 | Phage-413 (MDWCPSDMWSNCFN) | 0.070
2 | Phage-44 (MDWCPIALWAECFN; not fully specified; cysteine pairing not given here) | 0.111
3 | Phage-412 (QHWCPRDMWNDCYA) | 0.066
4 | Phage-57 (MDWCPRHRWVDCFY; left off: large carriers) | 0.073
5 | Phage-426 (MFLCPSAMWNRCFY) | 0.069
6 | Phage-139 (MDWCPRDLWDVCFA) | 0.096
7 | Phage-431 (MAWCPADQWHECFN) | 0.076
8 | Phage-113 (MDWCPRDLWNVCFF) | 0.164
9 | Phage-446 (MDWCPRDRWDDCFN) | 0.069
10 | Phage-442 (IYWCPIDRWNDCYN) | 0.177
11 | Phage-129 (MDWCPSYLWTVCFA) | 0.062
12 | Phage-45 (MDWCPRPLWHECFS; not fully specified; cysteine pairing not given here) | 0.078
13 | Phage-120 (MDWCPRDLWHACFS) | 0.074
14 | Phage-428 (MNWCPSTMWNRCLT) | 0.067
15 | Phage-54 (MNWCPRDMWYQCFN; not fully specified; cysteine pairing not given here) | 0.068
16 | Phage-51 (MDWCPMDLWDYCFN; not fully specified; cysteine pairing not given here) | 0.071
17 | Phage-109 (MDWCPKNLWHVCFN) | 0.081
18 | Phage-60 (MDWCPRTLWYLCFN; left off: large carriers) | 0.508
19 | Phage-116 (MDWCPRDLWYACFA) | 0.072

Row | Substance | Background signal
20 | Phage-111 (MDWCPFYLWNECFY) | 0.099
21 | Phage-61 (MVSCPTTMWNRCFN; left off: large carriers) | 0.079
22 | Phage-125 (MDWCPVSLWHVCFY) | 0.107
23 | Phage-402 (MDWCPRHMWHECFH) | 0.067
24 | Phage-128 (MDWCPRDLWIECFF) | 0.084
25 | Phage-422 (MYWCPINMWDYCYA) | 0.122
26 | Phage-410 (IDWCPRYMWHECFF) | 0.098
27 | Phage-124 (MDWCPRPLWDMCFF) | 0.063
28 | Phage-435 (MDWCPRDRWVDCYA) | 0.157
29 | Phage-64 (MDWCPRALWAECFN; left off: large carriers) | 0.068
30 | Phage-408 (MFWCPKDMWAECFA) | 0.099
31 | Phage-47 (MAWCPVYLWHECFN; not fully specified; cysteine pairing not given here) | 0.094
32 | Phage-56 (MHWCPMDQWSNCFN; left off: large carriers) | 0.062
33 | Phage-403 (MSWCPWDMWNECFA) | 0.069
34 | Phage-141 (MDWCPRSLWNVCFF) | 0.106
35 | Phage-39 (MDWCPMHLWHQCFN; not fully specified; cysteine pairing not given here) | 0.073
36 | Phage-444 (VNQCTRYRWAECLN) | 0.465
37 | Phage-131 (MDWCPRSLWIYCFN) | 0.113
38 | Phage-418 (MYWCPKYMWSECFA) | 0.072

Row | Substance | Background signal
39 | Phage-441 (MDWCPRDRWDDCFF) | 0.114
40 | Phage-98 (MDWCPKYLWDVCFN) | 0.096
41 | Phage-59 (MDWCPRDSWHLCFA; left off: large carriers) | 0.073
42 | Phage-401 (MDWCPLDMWVLCFA) | 0.085
43 | Phage-137 (MDWCPRYLWHECFH) | 0.101
44 | Phage-405 (MDWCPMSMWAFCFD) | 0.102
45 | Phage-58 (MHWCPIDRWADCFN; left off: large carriers) | 0.074
46 | Phage-425 (MDLCPTAMWNRCFY) | 0.063
47 | Phage-96 (MDWCPRTLWAYCFN) | 0.070
48 | Phage-115 (MDWCPRYLWHECFN) | 0.105
49 | Phage-100 (MDWCPRYLWTECFN) | 0.062
50 | Phage-433 (MAWCPWAQFDECLA) | 0.073
51 | Phage-423 (INLCPTPMWNRCWL) | 0.119
52 | Phage-126 (MDWCPRFLWNECFN) | 0.072
53 | Phage-42 (MDWCPRHLWVHCFN; not fully specified; cysteine pairing not given here) | 0.071
54 | Phage-123 (MDWCPIHLWNECFA) | 0.104
55 | Phage-48 (IDWCPRYLWDECYN; not fully specified; cysteine pairing not given here) | 0.061
56 | Phage-452 (MDWCPRDWWHMCFN) | 0.100
57 | Phage-434 (IVWCPTTQWNRCAT) | 0.113

Same assay, conditions: background (no anti-CD28 scFv)

Row | Substance | Background signal
58 | Phage-306 (MDWCPRHLWNECFA) | 0.068
59 | Phage-371 (MAWCPRYLWAECFF) | 0.510
60 | Phage-386 (NHWCPTTLWNRCVA) | 0.293
61 | Phage-337 (MDWCPKPLWHVCFA) | 0.069
62 | Phage-376 (MDWCPRHLWTYCFH) | 0.109
63 | Phage-378 (MHWCPLHLWNECFA) | 0.065
64 | Phage-273 (IDWCPTAGWTYCWF; not fully specified; cysteine pairing not given here) | 0.071
65 | Phage-381 (MAWCPRILWHQCFN) | 0.113
66 | Phage-302 (MDWCPRYLWHVCFD) | 0.068
67 | Phage-301 (MDWCPRYLWHECFF) | 0.082
68 | Phage-290 (MDWCPRDLWSVCFS) | 0.090
69 | Phage-317 (MDWCPRHLWHECFT) | 0.103
70 | Phage-304 (MDWCPKFLWDECFA) | 0.311
71 | Phage-333 (MDWCPTDLWHECFA) | 0.078
72 | Phage-342 (MDWCPRNLWHECFA) | 0.067
73 | Phage-395 (MDWCPKDMWAECFN) | 0.083
74 | Phage-323 (MDWCPTYLWNVCFA) | 0.085
75 | Phage-359 (MDWCPRPLWHECFA) | 0.063
76 | Phage-344 (MDWCPRHLWVHCFS) | 0.096
77 | Phage-362 (MDWCPRILWHECFS) | 0.064

Row | Substance | Background signal
78 | Phage-279 (MDWCPRYLWAECFN; not fully specified; cysteine pairing not given here) | 0.068
79 | Phage-281 (MDWCPRSLWFLCFN) | 1.110
80 | Phage-374 (MAWCPLDLWDKCFY) | 0.079
81 | Phage-369 (MHWCPRDLWYECFA) | 0.072
82 | Phage-288 (MDWCPIALWDFCFA) | 0.073
83 | Phage-368 (MSWCPPYLWTVCYN) | 0.176
84 | Phage-356 (MDWCPMYLWDECFF) | 0.082
85 | Phage-315 (MDWCPTYLWHVCFS) | 0.089
86 | Phage-309 (MDWCPMFLWHECFN) | 0.170
87 | Phage-300 (MDWCPRHLWFECFF) | 0.178
88 | Phage-311 (MDWCPRDLWYQCFN) | 0.069
89 | Phage-294 (MDWCPRSLWDYCFA) | 0.115
90 | Phage-399 (MDWCPRSMWDSCFN) | 0.332
91 | Phage-318 (MDWCPMFLWDECFN) | 0.132
92 | Phage-271 (MDWCPTSFWNRCFH; not fully specified; cysteine pairing not given here; also: large carriers left off) | 0.102
93 | Phage-331 (MDWCPRHLWDECFY) | 0.098
94 | Phage-314 (MDWCPIHLWNECFN) | 0.074
95 | Phage-336 (MDWCPRDLWNWCFN) | 0.139
96 | Phage-303 (MDWCPRYLWTECFS) | 0.074
97 | Phage-308 (MDWCPKSLWAECFN) | 0.395

Row | Substance | Background signal
98 | Phage-327 (MHWCPRDLWHVCFN) | 0.071
99 | Phage-388 (MDWCPRFMWNFCFF) | 2.200
100 | Phage-397 (MDWCPRAMWDYCFY) | 0.123
101 | Phage-307 (MDWCPRYLWPVCFH) | 0.179
102 | Phage-393 (MDWCPRDMWFECFN) | 0.069
103 | Phage-387 (MDWCPRHLWLECFN) | 0.064
104 | Phage-343 (MDWCPRDLWTQCFF) | 0.065
105 | Phage-292 (MDWCPRALWDHCFF) | 0.081
106 | Phage-372 (MDWCPRYLWVDCFA) | 0.095
107 | Phage-326 (MFWCPITLWNECFN) | 0.075
108 | Phage-370 (MTWCPAYLWHECFN) | 0.086
109 | Phage-347 (MDWCPLFLWDQCFN) | 0.116
110 | Phage-345 (MDFCPRFLWHECFN) | 0.063
111 | Phage-269 (DSFCTWSAWQECGR; not fully specified; cysteine pairing not given here) | 0.072
112 | Phage-275 (MDWCPRDHWVDCYS; not fully specified; cysteine pairing not given here) | 0.172
113 | Phage-270 (MDWCPRDFWAFCFF; cysteine pairing not given here; also: large carriers left off) | 0.118
114 | Phage-354 (MDWCPRYLWLECFN) | 0.083
115 | Phage-380 (MDYCPSYLWHECFA) | 0.065

Same assay, conditions: binding to anti-CD28 scFv in presence of CD28 soluble protein

Row | Substance | CD28 scFv signal in presence of CD28
116 | Phage-273 (IDWCPTAGWTYCWF; not fully specified; cysteine pairing not given here) | 0.075
